Experiment [1] deals with pre-activated CD4 T cells and Raji cells. Description: Raji CD4 T Cell IL2 Assay. Type of experiment: cell-based.
For experiment [2], the target named is T1, human DGKζ (Homo sapiens (Human), UniProt Q13574). Description: DGKζ LIPGLO assay (extruded liposome substrate). As to conditions: extruded liposome substrate; read-out: DGKζ LIPGLO IC50. Type of experiment: biochemical. The method, then: The DGKα and DGKζ reactions were performed using either extruded liposome (DGKα and DGKζ LIPGLO assays) or detergent/lipid micelle substrate (DGKα and DGKζ assays). The reactions were carried out in 50 mM MOPS pH 7.5, 100 mM NaCl, 10 mM MgCl2, 1 μM CaCl2, and 1 mM DTT (assay buffer). The reactions using a detergent/lipid micelle substrate also contained 50 mM octyl B-D-glucopyranoside.
T1 sequence (Q13574 other isoform, or with tags, fused parts or gaps): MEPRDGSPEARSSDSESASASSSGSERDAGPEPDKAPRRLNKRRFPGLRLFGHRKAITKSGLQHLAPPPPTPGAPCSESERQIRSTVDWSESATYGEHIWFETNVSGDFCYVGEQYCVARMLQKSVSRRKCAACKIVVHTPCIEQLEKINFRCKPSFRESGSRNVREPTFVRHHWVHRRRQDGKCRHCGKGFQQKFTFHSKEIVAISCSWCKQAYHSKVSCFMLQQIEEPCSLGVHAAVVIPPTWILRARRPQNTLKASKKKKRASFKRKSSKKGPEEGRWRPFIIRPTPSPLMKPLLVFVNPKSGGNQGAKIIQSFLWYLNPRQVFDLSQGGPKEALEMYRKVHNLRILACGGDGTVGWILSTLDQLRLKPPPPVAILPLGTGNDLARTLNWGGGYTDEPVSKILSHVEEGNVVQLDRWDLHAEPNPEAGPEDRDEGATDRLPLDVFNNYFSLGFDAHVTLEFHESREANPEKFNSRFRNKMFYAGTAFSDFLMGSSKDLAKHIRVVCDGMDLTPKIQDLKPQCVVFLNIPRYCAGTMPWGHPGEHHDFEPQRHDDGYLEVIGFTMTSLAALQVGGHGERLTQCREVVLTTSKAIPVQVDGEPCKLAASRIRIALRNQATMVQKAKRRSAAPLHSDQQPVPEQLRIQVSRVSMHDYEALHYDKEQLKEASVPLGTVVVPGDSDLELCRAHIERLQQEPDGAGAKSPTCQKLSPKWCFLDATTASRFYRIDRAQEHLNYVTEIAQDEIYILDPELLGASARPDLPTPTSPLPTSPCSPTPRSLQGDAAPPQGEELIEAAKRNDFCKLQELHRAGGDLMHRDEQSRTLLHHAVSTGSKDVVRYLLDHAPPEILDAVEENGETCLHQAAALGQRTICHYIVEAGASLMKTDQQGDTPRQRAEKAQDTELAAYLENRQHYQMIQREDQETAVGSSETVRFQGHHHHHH
(§1) A 5 mL enzyme/substrate solution at 2× final reaction concentration was prepared by combining 2.5 mL 4× enzyme solution (20 nM DGKα or DGKζ (prepared as described below) in assay buffer) and 2.5 mL of either 4× liposome or 4× detergent/lipid micelle solution (compositions described below) and incubated at room temperature for 10 minutes. Next, 1 μL 2× enzyme/substrate solution was added to wells containing the test compound and reactions were initiated with the addition of 1 μL 300 uM ATP. The reactions were allowed to proceed for 1 hr, after which 2 μL Glo Reagent (Promega V9101) was added and incubated for 40 minutes. Next, 4 μL Kinase Detection Reagent was added and incubated for 30 minutes. Luminescence was recorded using an EnVision microplate reader. […] The compounds were evaluated at 11 concentrations to determine IC50.
(§2) The PC, DAG, and PS were dissolved in chloroform, combined, and dried in vacuo to a thin film. The lipids were hydrated to 20 mM in 50 mM MOPS pH 7.5, 100 mM NaCl, 5 mM MgCl2, and were freeze-thawed five times. The lipid suspension was extruded through a 100 nm polycarbonate filter eleven times. […] The liposome preparation was stored at 4° C. for as long as four weeks.
Baculovirus amplification was achieved using infected Sf9 cells at 1:1500 virus/cell ratios, and grown for 65 hours at 27° C. post-transfection.
(§3) The expression scale up for each protein was carried out in the Cellbag 50 L WAVE-Bioreactor System 20/50 from GE Healthcare Bioscience. 12 L of 2×10^6 cells/mL Sf9 cells (Expression System, Davis, Calif.) grown in ESF921 insect medium (Expression System) were infected with virus stock at 1:200 virus/cell ratios, and grown for 66-68 hours at 27° C. post-infection. The infected cell culture was harvested by centrifugation at 2000 rpm for 20 min 4° C. in a SORVALL® RC12BP centrifuge. The cell pellets were stored at −70° C. until purification.
The cells were lysed using nitrogen cavitation method with a nitrogen bomb (Parr Instruments), and the lysates were clarified by centrifugation. […] The three steps column chromatography included nickel affinity resin capture (i.e. HisTrap FF crude, GE Healthcare), followed by size exclusion chromatography (i.e. HiLoad 26/600 Superdex 200 prep grade, GE Healthcare for DGK-alpha, and HiPrep 26/600 Sephacryl S 300_HR, GE Healthcare for DGK-zeta). The third step was ion exchange chromatography, and differed for the two isoforms. DGKα was polished using Q-Sepharose anion exchange chromatography (GE Healthcare). DGKζ was polished using SP Sepharose cation exchange chromatography (GE Healthcare). The proteins were delivered at concentrations of ≥2 mg/mL. The formulation buffers were identical for both proteins: 50 mM Hepes, pH 7.2, 500 mM NaCl, 10% v/v glycerol, 1 mM TCEP, and 0.5 mM EDTA.

The target of experiment [3] is T2, human DGKα (Homo sapiens (Human), UniProt P23743). Description: biochemical. Conditions: detergent/lipid micelle substrate; read-out: DGKα IC50. Put shortly: (§4)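 Enzymes were baculovirus/Sf9 full-length human DGKα or DGKζ with His tag. The substrate was PS/DAG in octyl glucoside micelles, in MOPS pH 7.5 buffer with NaCl, MgCl2, CaCl2 and DTT.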
T2 sequence (P23743 other isoform, or with tags, fused parts or gaps): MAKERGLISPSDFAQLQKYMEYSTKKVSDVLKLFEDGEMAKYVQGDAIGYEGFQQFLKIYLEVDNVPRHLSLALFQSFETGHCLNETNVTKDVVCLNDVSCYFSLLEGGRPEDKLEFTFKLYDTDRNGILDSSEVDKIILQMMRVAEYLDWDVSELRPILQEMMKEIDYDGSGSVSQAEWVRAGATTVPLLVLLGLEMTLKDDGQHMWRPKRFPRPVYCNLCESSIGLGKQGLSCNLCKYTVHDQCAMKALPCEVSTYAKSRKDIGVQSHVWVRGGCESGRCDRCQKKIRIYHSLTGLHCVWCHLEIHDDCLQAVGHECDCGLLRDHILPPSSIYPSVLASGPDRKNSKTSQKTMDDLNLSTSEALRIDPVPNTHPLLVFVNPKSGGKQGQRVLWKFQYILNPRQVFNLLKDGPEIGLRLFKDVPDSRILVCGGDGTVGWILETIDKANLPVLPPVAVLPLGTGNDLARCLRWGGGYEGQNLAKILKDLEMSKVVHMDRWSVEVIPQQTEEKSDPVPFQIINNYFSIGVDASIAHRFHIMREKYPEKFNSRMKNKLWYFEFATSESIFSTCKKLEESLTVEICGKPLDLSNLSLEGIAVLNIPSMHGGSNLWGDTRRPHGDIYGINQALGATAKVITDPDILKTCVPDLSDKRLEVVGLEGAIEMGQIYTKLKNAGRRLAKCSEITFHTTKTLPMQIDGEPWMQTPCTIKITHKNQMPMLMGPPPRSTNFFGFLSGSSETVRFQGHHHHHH
The target of experiment [4] is T1, human DGKζ. Nature of the experiment: DGKζ assay (detergent/lipid micelle substrate). In kind it is biochemical. Conditions: detergent/lipid micelle substrate; read-out: DGKζ IC50. In a few lines:
as §4

Experiment [5] deals with T2, human DGKα. Description: DGKα LIPGLO assay (extruded liposome substrate). In kind it is biochemical. The method, then: The DGKα and DGKζ reactions were performed using either extruded liposome (DGKα and DGKζ LIPGLO assays) or detergent/lipid micelle substrate (DGKα and DGKζ assays). The reactions were carried out in 50 mM MOPS pH 7.5, 100 mM NaCl, 10 mM MgCl2, 1 μM CaCl2, and 1 mM DTT (assay buffer). The reactions using a detergent/lipid micelle substrate also contained 50 mM octyl B-D-glucopyranoside. […] The lipid substrate concentrations were […], 0.25 mM DAG, and 2.75 mM PC for the extruded liposome reactions.
as §1, with “The compound inhibition studies were carried out as follows: 50 nL droplets of each test compound (top concentration 10 mM with 11 point, 3-fold dilution series for each compound) solubilized in DMSO were transferred to wells of a white 1536 well plate (Corning 3725). A 5” for “A 5”
as §2
Human DGK-alpha-TVMV-His-pFBgate and human DCK-zeta-transcript variant-2-TVMV-His-pFBgate baculovirus samples were generated using the Bac-to-Bac baculovirus expression system (Invitrogen) according to the manufacturer's protocol. The DNA used for expression of DGK-alpha and DGK-zeta have SEQ ID NOs: 1 and 3, respectively. Baculovirus amplification was achieved using infected Sf9 cells at 1:1500 virus/cell ratios, and grown for 65 hours at 27° C. post-transfection.
as §3
Full length human DGKα and DGKζ, each expressed containing a TVMV-cleavable C-terminal Hexa-His tag sequence (SEQ ID NOs: 2 and 4, respectively) and produced as described above, were purified from Sf) baculovirus-infected insect cell paste. The cells were lysed using nitrogen cavitation method with a nitrogen bomb (Parr Instruments), and the lysates were clarified by centrifugation. […] The three steps column chromatography included nickel affinity resin capture (i.e. HisTrap FF crude, GE Healthcare), followed by size exclusion chromatography (i.e. HiLoad 26/600 Superdex 200 prep grade, GE Healthcare for DGK-alpha, and HiPrep 26/600 Sephacryl S 300_HR, GE Healthcare for DGK-zeta). The third step was ion exchange chromatography, and differed for the two isoforms.

The values that follow come from US11866430B2, “Naphthyridinone compounds useful as T cell activators” (priority 2018, dated 2024).

Where two headings read alike, the source gives them in different places.

By IC50 is commonly meant the concentration that inhibits the measured activity by half. In the case of `COc1ccccc1C(c1ccc(F)cc1)N1CCN(c2c(C#N)c(=O)n(C)c3ccc(Br)nc23)CC1` (single isomer, unassigned) [Example 14, 6-bromo-4-{4-[(4-fluorophenyl)(2-methoxyphenyl)methyl]piperazin-1-yl}-1-methyl-2-oxo-1,2-dihydro-1,5-naphthyridine-3-carbonitrile], the half-maximal inhibitory concentration (IC50) in experiment [1] is 26 nM; on human DGKζ [2], 3200 nM; on human DGKα [3], 1200 nM; at human DGKζ [4], > 240000 nM; at human DGKα [5] it was 4700 nM.
With `COc1ccc2c(n1)c(N1CCN(C(c3ccc(F)cc3)c3ccc(F)cc3)CC1)c(C#N)c(=O)n2C` [Example 103, 4-(4-(bis(4-fluorophenyl)methyl)piperazin-1-yl)-6-methoxy-1-methyl-2-oxo-1,2-dihydro-1,5-naphthyridine-3-carbonitrile], the half-maximal inhibitory concentration (IC50) in experiment [1] (Homo sapiens, Raji) was found to be 400 nM; on human DGKζ [2], 990 nM; on human DGKα [5], 6100 nM.
In the same order, the values of `COc1ccc2c(n1)c(N1CCN(C(c3ccc(F)cc3)c3ccccc3O)CC1)c(C#N)c(=O)n2C` (centres unmarked) [Example 104, 4-(4-((4-fluorophenyl)(2-hydroxyphenyl)methyl)piperazin-1-yl)-6-methoxy-1-methyl-2-oxo-1,2-dihydro-1,5-naphthyridine-3-carbonitrile] are 440 nM, 780 nM and 740 nM.
In the same order, the values of `O=c1c([N+](=O)[O-])c(N2CCN(C(c3ccccc3)c3ccccc3)CC2)c2ncccc2n1CCC1OCCCO1` [Example 166, 1-(2-(1,3-dioxan-2-yl)ethyl)-4-(4-benzhydrylpiperazin-1-yl)-3-nitro-1,5-naphthyridin-2(1H)-one] are 3800 nM, 230000 nM and 210000 nM.
The like results for `C=CCn1c(=O)c([N+](=O)[O-])c(N2CCN(C(c3ccccc3)c3ccccc3)CC2)c2ncccc21` [Example 176, 1-all-4-(4-benzhydrylpiperazin-1-yl)-3-nitro-1,5-naphthyridin-2(1H)-one] were, in that order, 3000 nM, 27000 nM and > 240000 nM.
Take `Cc1ccc2c(n1)c(N1CCN(C(c3ccc(F)cc3)c3ccc(F)cc3)CC1)c(C(=O)C(F)(F)F)c(=O)n2C` [Example 228, 4-(4-(bis(4-fluorophenyl)methyl)piperazin-1-yl)-1,6-dimethyl-3-(2,2,2-trifluoroacetyl)-1,5-naphthyridin-2(1H)-one]: the IC50 in experiment [1] (Homo sapiens, Raji) was 110 nM; at human DGKζ [2] it was 9700 nM; at human DGKζ [4], > 240000 nM; at human DGKα [5] it was > 240000 nM.
As for `Cn1c(=O)c([N+](=O)[O-])c(N2CCN(C(C)(C)c3ccc(F)cc3)CC2)c2nc(C#N)ccc21` [Example 260, 8-{4-[2-(4-fluorophenyl)propan-2-yl]piperazin-1-yl}-5-methyl-7-nitro-6-oxo-5,6-dihydro-1,5-naphthyridine-2-carbonitrile], the IC50 in experiment [1] (Homo sapiens, Raji) came out at 18 nM; at human DGKζ [2] it was 5300 nM; at human DGKα [3], 350 nM; against human DGKα [5] it was 1600 nM.
In the same order, the values of `Cn1c(=O)c(C#N)c(N2CCN(Cc3ccc(F)cc3)CC2)c2nc(Cl)ccc21` [Example 308, 6-chloro-4-{4-[(4-fluorophenyl)methyl]piperazin-1-yl}-1-methyl-2-oxo-1,2-dihydro-1,5-naphthyridine-3-carbonitrile] are 210 nM, 13000 nM, 190 nM and 950 nM.
On to `CCn1ccc2c(CN3CCN(c4c(C#N)c(=O)n(C)c5cccnc45)CC3)cccc21` [Example 334, 4-{4-[(1-ethyl-1H-indol-4-yl)methyl]piperazin-1-yl}-1-methyl-2-oxo-1,2-dihydro-1,5-naphthyridine-3-carbonitrile], for which the IC50 in experiment [1] (Homo sapiens, Raji) is 540 nM; on human DGKζ [2] it was 27000 nM; against human DGKα [5], 1700 nM.
Turning to `Cn1c(=O)c(C#N)c(N2CCN(C(c3ccccc3)c3ccccc3O)CC2)c2ncccc21` (centres unmarked) [Example 349, 4-{4-[(2-hydroxyphenyl)(phenyl)methyl]piperazin-1-yl}-1-methyl-2-oxo-1,2-dihydro-1,5-naphthyridine-3-carbonitrile], the 50% inhibitory concentration (IC50) in experiment [1] (Homo sapiens, Raji) came to 1400 nM; at human DGKζ [2], 32000 nM; against human DGKα [5], 1300 nM.
With `Cn1c(=O)c(C#N)c(N2CCN(C(c3ccccc3)c3ccccc3)CC2)c2nc(Cl)ccc21` [Example 358, 6-chloro-4-[4-(diphenylmethyl)piperazin-1-yl]-1-methyl-2-oxo-1,2-dihydro-1,5-naphthyridine-3-carbonitrile], the half-maximal inhibitory concentration (IC50) is 6500 nM in experiment [1] (Homo sapiens, Raji); > 240000 nM on human DGKζ [2]; > 240000 nM at human DGKα [5].
For `Cn1c(=O)cc(N2CCN(C(c3ccc(F)cc3)c3ccc(F)cc3)CC2)c2ncccc21` [Example 426, 4-(4-(bis(4-fluorophenyl)methyl)piperazin-1-yl)-1-methyl-1,5-naphthyridin-2(1H)-one], the IC50 is 20000 nM in experiment [1] (Homo sapiens, Raji); > 240000 nM at human DGKζ [2]; 170000 nM against human DGKα [5].
